Experimental data reported in PubChem BioAssay AID1417 (Emory University Molecular Libraries Screening Center, 2008).

The compounds below were run against Induced myeloid leukemia cell differentiation protein Mcl-1 (Homo sapiens) (UniProt Q07820) (assay: Mcl-1/Noxa binding inhibitor potency, dose response, biochemical, TR-FRET (AID 1417)). Settings: Mcl-1/Noxa peptide interaction, cell-free TR-FRET (terbium/rhodamine), 2 h; measured here: absolute IC50.
Induced myeloid leukemia cell differentiation protein Mcl-1 (Homo sapiens), sequence (Q07820 whole entry, looked up): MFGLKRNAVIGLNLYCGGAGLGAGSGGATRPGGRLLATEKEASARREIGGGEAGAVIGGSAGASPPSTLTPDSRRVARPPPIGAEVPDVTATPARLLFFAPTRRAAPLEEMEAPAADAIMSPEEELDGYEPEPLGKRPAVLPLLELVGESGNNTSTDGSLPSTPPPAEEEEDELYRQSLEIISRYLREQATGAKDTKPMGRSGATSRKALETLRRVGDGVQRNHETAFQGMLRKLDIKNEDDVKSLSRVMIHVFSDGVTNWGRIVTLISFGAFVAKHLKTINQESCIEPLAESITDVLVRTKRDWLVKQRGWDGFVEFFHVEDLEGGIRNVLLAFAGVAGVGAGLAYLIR

SMILES	IC50 [µM]
O=C(Nc1ccc([N+](=O)[O-])cc1)Nc1ccc(N2CCOCC2)c2nonc12	4.63
Cc1cc(/C=C2/C(=O)NN(c3ccccc3)C2=O)c(C)n1-c1cccc(O)c1	3.25
O=C(Nc1ccc(Cl)cc1)Nc1nnc(/C=C/c2ccccc2)s1	4.06
O=C(O)CCCCCN1C(=O)/C(=C\c2ccc(-c3ccc(Cl)cc3)o2)SC1=S	1.36
CN(C)c1ccc(/C=N/N(Cc2ccccc2)c2ccccc2)cc1	> 54
Cc1ccc(C(=O)NNc2c3ccccc3nc3ccccc23)cc1	9.97
C/C(=C\c1ccco1)C1Nc2cccc3cccc(c23)N1	3.68
CNC(=O)COC(=O)c1cc(-c2ccco2)nc2ccccc12	3.16
O=c1cc(-c2ccc([N+](=O)[O-])cc2)nc2cc(-c3ccc(Cl)cc3)[nH]n12	1.63
C=CCOC(=O)/C(=C\c1ccccc1)NC(=O)c1ccc(C)cc1	> 54
CCN(CC)c1ccc(NC(=O)Nc2cccc(C(C)=O)c2)cc1	> 54
CCc1ccc(S(=O)(=O)/N=C2\C=CC(=O)c3ccccc32)cc1	< 0.4
Cc1c(N=Nc2c(-c3ccc([N+](=O)[O-])cc3)[nH]n(C(N)=S)c2=O)cccc1[N+](=O)[O-]	< 0.4
CCCCCn1c(N)c(-c2nc3ccccc3o2)c2c([N+](=O)[O-])nn(CC)c(=O)c21	2.8
CCC(=O)Oc1ccc2c(=O)c(-c3ccc4ccccc4n3)c(CC)oc2c1C	> 54
Cc1ccc(-c2cc(C(=O)OCC(=O)N(C)C3CCS(=O)(=O)C3)c3ccccc3n2)o1 (stereo not drawn)	2.98
NC(=S)n1[nH]c(-c2ccc([N+](=O)[O-])cc2)c(N=Nc2ccc(Cl)cc2)c1=O	< 0.4
CN(C)c1ccc(NC(=O)Nc2ccc3snnc3c2)cc1	< 0.4
CN1C=C/C(=C\c2cc[n+](C)c3ccccc23)c2ccccc21	< 0.4
O=[N+]([O-])c1ccc2[nH]c(O)c(N=NC(=S)Nc3cccnc3)c2c1	8.86
CCS(=O)(=O)C1=NN2C(=N)/C(=C\c3ccc(SCc4ccco4)o3)C(=O)N=C2S1	1.46
O=C(CSc1n[nH]c(=O)[nH]c1=O)Nc1ccc2c(c1)C(=O)c1ccccc1C2=O	> 54
COc1ccc(Cl)c(N2CCN(CCCNC(=O)Nc3ccc(C)cc3)CC2)c1	6.02
O=C(Nc1ccc(N2CCCC2)cc1)c1ccc2ccccc2c1	4.97
COc1ccc(/C=C2/SC(=O)N(CCC(=O)Nc3ccc(S(=O)(=O)Nc4nccs4)cc3)C2=O)cc1	3.81
CCN(c1ccc(NC(=O)COC(=O)c2cccs2)cc1)C(C)C	> 54
CSc1nc(N(C)CCO)c2sc3nc(-c4ccco4)c4c(c3c2n1)CCC4	< 0.4

SMILES	IC50 [µM]
COC(=O)[C@@]1(Cc2ccccc2)[C@H]2c3cc(C(=O)N4CCCC4)n(CCSCCO)c3C[C@H]2CN1C(=O)c1ccccc1	> 54
O=C(/C=C\c1ccco1)c1ccc(NC(=O)c2ccco2)cc1	3.3
COc1cc(C(=O)Nc2ccc3c(c2)C(=O)c2ccccc2C3=O)cc(OC)c1OC	3.97
CN(C)S(=O)(=O)c1cccc(-c2nn(-c3ccccc3)cc2/C=C2\SC(=S)NC2=O)c1	0.48
O=C(CN1C(=O)/C(=C2\SC(=S)N(C3CCS(=O)(=O)C3)C2=O)c2ccccc21)Nc1ccc(F)cc1 (stereo not drawn)	2.07
CCOc1ccc2nc(NC(=O)c3cccc(-c4cc5ccccc5oc4=O)c3)sc2c1	3.75
FC(F)(F)C1=CC(c2ccccc2)=NCCN1	> 54
O=C(O)Cc1c[nH]c2cccc(O)c12	0.81
Cc1cc2nc(/C=C/c3nc4cc(C)c(C)cc4[nH]3)[nH]c2cc1C	4.54
COc1ccc(CCNC(=O)CN(c2ccc(OC)c(OC)c2)S(C)(=O)=O)cc1	> 54
Nc1c(O)ccc2c1C(=O)c1ccccc1C2=O	43.4
O=C1C2C3C=CC(C2C(=O)N1c1cccc(O)c1)C1C2C(=O)N(c4cccc(O)c4)C(=O)C2C31 (stereo not drawn)	> 54
Nc1ccc(C2=Nc3cccc4cccc(c34)N2)cc1	< 0.4
CCOC(=O)c1c(NC(C)=O)sc2c(O)c(Br)cc(Br)c12	8.58
Oc1ccc(/C=N/Nc2nc(-c3cccnc3)nc3ccccc23)c(O)c1	> 54
CCOC(=O)c1c(C)oc2c1c(CN1CCN(C(=O)OCC)CC1)c(O)c1ccccc12	< 0.4
CC1=NN(c2cccc(C(=O)O)c2)C(=O)/C1=C\C=C\c1ccco1	4.5
O=C(O)CCCCCN1C(=O)/C(=C\c2cn(-c3ccccc3)nc2-c2cccs2)SC1=S	2.5
COc1ccc(C(=O)CSc2nnc(-c3ccco3)c(-c3ccco3)n2)cc1	7.95
Cn1c(=O)c(C(=O)COC(=O)c2cc(-c3ccco3)nc3ccccc23)c(N)n(CC2CC2)c1=O	0.449
O=C(CSc1ccsc1[N+](=O)[O-])Nc1cccc(F)c1	2.61
CC1CC(=O)c2c(cc3c(-c4c(O)cc(O)c5c(O)c6c(cc45)OC(C)CC6=O)c(O)cc(O)c3c2O)O1 (stereo not drawn)	< 0.4
CC(C)N1CCc2c(sc(NC(=O)c3cc4cc([N+](=O)[O-])ccc4s3)c2C(N)=O)C1	3.95
O=C(CN1C(=O)/C(=C2\SC(=S)N(C3CCS(=O)(=O)C3)C2=O)c2ccccc21)Nc1ccccc1 (stereo not drawn)	< 0.4
O=[N+]([O-])c1cc(S(=O)(=O)c2ccc(O)c([N+](=O)[O-])c2)ccc1O	0.846
O=C(COC(=O)c1ccc(NS(=O)(=O)c2cccs2)cc1)NCc1ccco1	2.41
